Blank lines part the entries; values can stand above or below the compound they belong to. Active and inactive are the calls of the source.
What was measured:
Type in all cases: functional
[1] = target: T1, Apoptotic protease-activating factor 1 (Homo sapiens, UniProt O14727); test: SAR analysis of small molecule inhibitors of Apaf-1 in a Fluorescent assay.; conditions: read-out: IC50_Mean
T1 sequence (O14727 whole entry): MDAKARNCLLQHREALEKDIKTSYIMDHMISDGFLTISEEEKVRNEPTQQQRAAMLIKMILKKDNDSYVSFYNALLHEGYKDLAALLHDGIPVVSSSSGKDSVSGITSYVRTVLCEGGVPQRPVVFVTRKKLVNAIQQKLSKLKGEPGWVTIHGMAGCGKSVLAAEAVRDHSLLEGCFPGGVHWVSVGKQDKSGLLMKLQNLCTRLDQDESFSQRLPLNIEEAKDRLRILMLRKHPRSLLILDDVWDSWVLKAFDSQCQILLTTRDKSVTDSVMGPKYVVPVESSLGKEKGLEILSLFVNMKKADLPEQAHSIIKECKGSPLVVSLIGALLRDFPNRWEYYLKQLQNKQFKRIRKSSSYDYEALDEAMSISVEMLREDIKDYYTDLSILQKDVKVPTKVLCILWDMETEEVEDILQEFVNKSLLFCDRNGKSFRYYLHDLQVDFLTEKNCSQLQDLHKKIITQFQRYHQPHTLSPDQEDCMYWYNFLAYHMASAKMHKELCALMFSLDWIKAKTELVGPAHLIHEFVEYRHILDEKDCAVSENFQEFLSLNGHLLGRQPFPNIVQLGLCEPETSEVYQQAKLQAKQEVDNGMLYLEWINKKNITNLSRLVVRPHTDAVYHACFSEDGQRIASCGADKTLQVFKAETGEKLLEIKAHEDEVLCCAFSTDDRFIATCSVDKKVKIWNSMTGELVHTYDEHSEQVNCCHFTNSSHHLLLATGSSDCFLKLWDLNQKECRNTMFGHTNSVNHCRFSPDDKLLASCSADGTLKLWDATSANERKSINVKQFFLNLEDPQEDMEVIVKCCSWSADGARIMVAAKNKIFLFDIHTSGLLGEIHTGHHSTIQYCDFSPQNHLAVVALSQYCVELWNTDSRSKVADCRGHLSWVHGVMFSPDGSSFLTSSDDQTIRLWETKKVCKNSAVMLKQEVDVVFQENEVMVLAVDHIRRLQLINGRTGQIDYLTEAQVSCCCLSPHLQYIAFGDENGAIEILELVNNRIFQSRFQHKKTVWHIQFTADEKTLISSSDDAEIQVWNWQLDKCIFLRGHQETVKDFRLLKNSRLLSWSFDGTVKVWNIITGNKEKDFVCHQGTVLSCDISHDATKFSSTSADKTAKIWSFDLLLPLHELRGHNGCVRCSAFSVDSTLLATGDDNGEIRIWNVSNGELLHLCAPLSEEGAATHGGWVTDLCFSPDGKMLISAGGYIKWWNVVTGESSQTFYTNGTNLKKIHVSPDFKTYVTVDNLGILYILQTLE

[2] = target: ALK tyrosine kinase receptor (Homo sapiens, UniProt Q9UM73);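 note: ALK tested as one member of a kinase panel screen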
[3] = target: Rho-associated protein kinase 1 (Homo sapiens, UniProt Q13464);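 note: measured within a broad kinome-wide panel profiling many kinases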
[4] = target: Dual specificity protein kinase CLK2 (Homo sapiens, UniProt P49760)
[5] = target: Calcium/calmodulin-dependent protein kinase type II subunit alpha (Homo sapiens, UniProt Q9UQM7); test: Navigating the Kinome. Panel member name: CAMK2A
[6] = target: Macrophage-stimulating protein receptor (Homo sapiens, UniProt Q04912); test: Navigating the Kinome. Panel member name: MST1R
[7] = target: Hepatocyte growth factor receptor (Homo sapiens, UniProt P08581);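 note: kinase panel profiling across the kinome, with MET as the panel member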
[8] = target: Death-associated protein kinase 3 (Homo sapiens, UniProt O43293);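 note: measured as one member of a kinome-wide profiling panel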
[9] = target: cAMP-dependent protein kinase catalytic subunit alpha (Homo sapiens, UniProt P17612)
[10] = target: Protein kinase C theta type (Homo sapiens, UniProt Q04759); test: Navigating the Kinome. Panel member name: PRKCQ
[11] = target: Cyclin-dependent kinase 9 (Homo sapiens, UniProt P50750);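 note: value from the CDK9 entry of a kinome-spanning kinase panel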
[12] = target: Mitogen-activated protein kinase kinase kinase kinase 4 (Homo sapiens, UniProt O95819)
[13] = target: Dual specificity tyrosine-phosphorylation-regulated kinase 1B (Homo sapiens, UniProt Q9Y463); test: Navigating the Kinome. Panel member name: DYRK1B
[14] = target: Leukocyte tyrosine kinase receptor (Homo sapiens, UniProt P29376); test: Navigating the Kinome. Panel member name: LTK
[15] = target: Tyrosine-protein kinase receptor TYRO3 (Homo sapiens, UniProt Q06418);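 note: TYRO3 value obtained as one member of a kinome-wide profiling panel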
[16] = target: Serine/threonine-protein kinase D3 (Homo sapiens, UniProt O94806);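 note: determined within a kinase panel screen, with PRKCN as the panel member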
[17] = target: Dual specificity protein kinase CLK4 (Homo sapiens, UniProt Q9HAZ1)
[18] = target: Macrophage colony-stimulating factor 1 receptor (Homo sapiens, UniProt P07333);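 note: value comes from the Navigating the Kinome screening panel, CSF1R member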
[19] = target: Tyrosine-protein kinase ABL1 (Homo sapiens, UniProt P00519)
Focal adhesion kinase 1 = Focal adhesion kinase 1 (Homo sapiens, UniProt Q05397);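 note: measured as one member of a kinome panel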
[20] = target: Glycogen synthase kinase-3 beta (Homo sapiens, UniProt P49841);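 note: value comes from a broad kinome profiling panel, with GSK3B as the panel member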
[21] = target: Leucine-rich repeat serine/threonine-protein kinase 2 (Homo sapiens, UniProt Q5S007);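 note: value from a broad kinome-wide panel profiling study in which LRRK2 was one of the kinases tested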
[22] = target: Platelet-derived growth factor receptor beta (Homo sapiens, UniProt P09619);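 note: value comes from a kinome panel, with PDGFRB tested as one panel member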
[23] = target: Dual specificity mitogen-activated protein kinase kinase 1 (Homo sapiens, UniProt Q02750); test: Navigating the Kinome. Panel member name: MAP2K1
Aurora kinase A = Aurora kinase A (Homo sapiens, UniProt O14965);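 note: value from the Navigating the Kinome kinase panel profiling, panel entry STK6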
[24] = target: Casein kinase I isoform alpha (Homo sapiens, UniProt P48729)
[25] = target: Dual specificity tyrosine-phosphorylation-regulated kinase 1A (Homo sapiens, UniProt Q13627);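 note: measured against DYRK1A as one member of a broad kinome profiling panel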
Activated CDC42 kinase 1 = Activated CDC42 kinase 1 (Homo sapiens, UniProt Q07912); test: Navigating the Kinome. Panel member name: ACK1
[26] = target: Vascular endothelial growth factor receptor 1 (Homo sapiens, UniProt P17948);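 note: measured within a kinome-wide profiling panel, FLT1 as the panel member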
[27] = target: Dual specificity mitogen-activated protein kinase kinase 2 (Homo sapiens, UniProt P36507); test: Navigating the Kinome. Panel member name: MAP2K2
[28] = target: Vascular endothelial growth factor receptor 2 (Homo sapiens, UniProt P35968)
[29] = target: Glycogen synthase kinase-3 alpha (Homo sapiens, UniProt P49840);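 note: GSK3A result taken from a broad kinome-wide kinase panel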
Activin receptor type-1 = Activin receptor type-1 (Homo sapiens, UniProt Q04771); test: Navigating the Kinome. Panel member name: ACVR1
[30] = target: Fibroblast growth factor receptor 1 (Homo sapiens, UniProt P11362)
[31] = target: cAMP-dependent protein kinase catalytic subunit PRKX (Homo sapiens, UniProt P51817)
[32] = target: Cyclin-dependent kinase 5 (Homo sapiens, UniProt Q00535);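 note: CDK5 measured as one member of a kinase profiling panel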
[33] = target: Cyclin-dependent kinase 7 (Homo sapiens, UniProt P50613);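 note: value comes from a kinome-wide kinase profiling panel in which CDK7 is one member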
[34] = target: Mitogen-activated protein kinase kinase kinase kinase 2 (Homo sapiens, UniProt Q12851);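 note: measured as one member of a kinome-wide kinase panel, with MAP4K2 as the panel entry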
[35] = target: T2, Melanin-concentrating hormone receptor 1 (Homo sapiens, UniProt Q99705); test: Late-stage fluorescence-based counterscreen for antagonists of the G-protein coupled receptor 7 (GPR7): cell-based dose response assay to identify antagonists of the melanin-concentrating hormone receptor 1 (MCHR1) Set 5.
[36] = target: T3, Neuropeptides B/W receptor type 1 (Homo sapiens, UniProt P48145); test: human NPBW1 receptor blockade, IC50 – cell-based, fluorescence, dose response, set 5, late-stage follow-up (AID 588566)
T3 sequence (P48145 whole entry): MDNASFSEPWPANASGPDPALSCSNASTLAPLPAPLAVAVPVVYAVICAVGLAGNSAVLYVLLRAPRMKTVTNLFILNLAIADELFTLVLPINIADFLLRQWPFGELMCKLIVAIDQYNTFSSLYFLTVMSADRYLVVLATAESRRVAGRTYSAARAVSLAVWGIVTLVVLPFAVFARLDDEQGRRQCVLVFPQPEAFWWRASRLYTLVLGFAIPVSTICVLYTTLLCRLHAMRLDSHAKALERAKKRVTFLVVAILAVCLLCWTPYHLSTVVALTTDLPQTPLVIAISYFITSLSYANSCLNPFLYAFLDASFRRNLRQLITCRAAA

[37] = target: T2, Melanin-concentrating hormone receptor 1; test: Late-stage fluorescence-based counterscreen for antagonists of the G-protein coupled receptor 7 (GPR7): cell-based dose response assay to identify antagonists of the melanin-concentrating hormone receptor 1 (MCHR1) Set 6.
[38] = target: T3, Neuropeptides B/W receptor type 1; test: human NPBW1 receptor blockade, IC50 – cell-based, fluorescence, dose response, set 6, late-stage follow-up (AID 588583)

T2 sequence (Q99705 whole entry): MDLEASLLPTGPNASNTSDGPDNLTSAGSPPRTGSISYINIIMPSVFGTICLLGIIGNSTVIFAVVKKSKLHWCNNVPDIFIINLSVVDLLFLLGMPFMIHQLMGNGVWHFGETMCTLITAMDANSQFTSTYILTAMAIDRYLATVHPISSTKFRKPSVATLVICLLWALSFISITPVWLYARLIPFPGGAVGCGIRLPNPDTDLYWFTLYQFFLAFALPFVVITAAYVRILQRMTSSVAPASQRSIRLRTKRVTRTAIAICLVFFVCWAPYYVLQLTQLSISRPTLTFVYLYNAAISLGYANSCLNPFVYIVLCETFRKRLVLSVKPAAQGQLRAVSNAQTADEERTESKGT
Sequence of Protein kinase C theta type (Q04759 whole entry): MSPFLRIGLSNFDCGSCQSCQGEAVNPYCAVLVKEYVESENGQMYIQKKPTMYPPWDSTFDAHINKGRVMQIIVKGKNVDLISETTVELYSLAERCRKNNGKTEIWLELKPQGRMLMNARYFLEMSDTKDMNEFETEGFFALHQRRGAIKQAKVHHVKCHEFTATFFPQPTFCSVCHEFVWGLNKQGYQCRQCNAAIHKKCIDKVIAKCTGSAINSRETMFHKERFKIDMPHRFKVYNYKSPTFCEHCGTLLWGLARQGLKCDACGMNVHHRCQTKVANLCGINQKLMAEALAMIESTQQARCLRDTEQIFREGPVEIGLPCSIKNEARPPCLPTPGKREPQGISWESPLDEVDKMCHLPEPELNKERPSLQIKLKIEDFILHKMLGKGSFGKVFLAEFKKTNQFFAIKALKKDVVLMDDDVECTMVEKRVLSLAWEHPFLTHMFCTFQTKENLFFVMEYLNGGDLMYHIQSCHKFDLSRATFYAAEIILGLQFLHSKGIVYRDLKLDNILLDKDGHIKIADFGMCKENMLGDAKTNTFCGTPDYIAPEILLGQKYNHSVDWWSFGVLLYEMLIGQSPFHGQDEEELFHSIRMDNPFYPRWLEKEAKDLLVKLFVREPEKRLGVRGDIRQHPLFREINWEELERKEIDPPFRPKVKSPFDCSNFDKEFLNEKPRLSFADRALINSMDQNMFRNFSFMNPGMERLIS
Sequence of Serine/threonine-protein kinase D3 (O94806 whole entry): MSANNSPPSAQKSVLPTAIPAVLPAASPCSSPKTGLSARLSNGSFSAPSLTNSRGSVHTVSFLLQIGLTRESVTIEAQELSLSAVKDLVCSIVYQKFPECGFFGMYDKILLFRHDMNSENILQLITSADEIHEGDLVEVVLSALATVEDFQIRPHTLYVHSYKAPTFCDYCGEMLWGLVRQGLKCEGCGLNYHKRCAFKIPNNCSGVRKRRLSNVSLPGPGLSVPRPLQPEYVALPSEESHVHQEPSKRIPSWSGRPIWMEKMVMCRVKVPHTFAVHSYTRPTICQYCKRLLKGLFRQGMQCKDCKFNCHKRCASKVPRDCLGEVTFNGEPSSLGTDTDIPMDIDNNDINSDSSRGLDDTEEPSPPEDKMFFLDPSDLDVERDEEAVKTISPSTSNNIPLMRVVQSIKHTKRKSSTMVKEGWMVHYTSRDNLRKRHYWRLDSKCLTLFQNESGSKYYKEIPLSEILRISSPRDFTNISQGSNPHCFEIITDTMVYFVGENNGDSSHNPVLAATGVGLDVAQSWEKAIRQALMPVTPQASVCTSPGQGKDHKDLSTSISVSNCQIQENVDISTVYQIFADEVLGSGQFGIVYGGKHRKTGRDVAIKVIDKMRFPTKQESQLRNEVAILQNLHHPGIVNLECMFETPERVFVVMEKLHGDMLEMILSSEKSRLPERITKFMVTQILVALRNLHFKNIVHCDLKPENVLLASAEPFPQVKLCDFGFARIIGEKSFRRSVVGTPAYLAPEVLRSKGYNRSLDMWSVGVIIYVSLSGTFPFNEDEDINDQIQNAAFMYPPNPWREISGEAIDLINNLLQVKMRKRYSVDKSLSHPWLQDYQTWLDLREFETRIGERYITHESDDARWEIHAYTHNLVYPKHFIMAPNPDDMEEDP
Sequence of Dual specificity tyrosine-phosphorylation-regulated kinase 1B (Q9Y463 whole entry): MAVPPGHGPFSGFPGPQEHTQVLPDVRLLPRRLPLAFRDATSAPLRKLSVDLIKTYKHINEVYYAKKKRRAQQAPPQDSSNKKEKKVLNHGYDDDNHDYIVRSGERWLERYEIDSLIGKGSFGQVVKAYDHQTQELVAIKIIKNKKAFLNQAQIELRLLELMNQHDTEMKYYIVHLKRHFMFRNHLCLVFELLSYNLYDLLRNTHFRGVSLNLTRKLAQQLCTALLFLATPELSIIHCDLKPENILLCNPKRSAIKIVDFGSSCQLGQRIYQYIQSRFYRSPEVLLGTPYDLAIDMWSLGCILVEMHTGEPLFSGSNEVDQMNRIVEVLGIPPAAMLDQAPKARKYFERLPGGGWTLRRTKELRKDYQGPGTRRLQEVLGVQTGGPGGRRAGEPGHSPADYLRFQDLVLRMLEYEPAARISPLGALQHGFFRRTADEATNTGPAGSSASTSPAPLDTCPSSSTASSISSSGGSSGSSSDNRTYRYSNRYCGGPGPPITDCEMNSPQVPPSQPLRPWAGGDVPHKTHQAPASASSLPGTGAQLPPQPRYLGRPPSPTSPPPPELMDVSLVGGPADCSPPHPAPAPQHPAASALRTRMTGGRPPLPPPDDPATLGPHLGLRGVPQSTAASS
Sequence of Rho-associated protein kinase 1 (Q13464 whole entry): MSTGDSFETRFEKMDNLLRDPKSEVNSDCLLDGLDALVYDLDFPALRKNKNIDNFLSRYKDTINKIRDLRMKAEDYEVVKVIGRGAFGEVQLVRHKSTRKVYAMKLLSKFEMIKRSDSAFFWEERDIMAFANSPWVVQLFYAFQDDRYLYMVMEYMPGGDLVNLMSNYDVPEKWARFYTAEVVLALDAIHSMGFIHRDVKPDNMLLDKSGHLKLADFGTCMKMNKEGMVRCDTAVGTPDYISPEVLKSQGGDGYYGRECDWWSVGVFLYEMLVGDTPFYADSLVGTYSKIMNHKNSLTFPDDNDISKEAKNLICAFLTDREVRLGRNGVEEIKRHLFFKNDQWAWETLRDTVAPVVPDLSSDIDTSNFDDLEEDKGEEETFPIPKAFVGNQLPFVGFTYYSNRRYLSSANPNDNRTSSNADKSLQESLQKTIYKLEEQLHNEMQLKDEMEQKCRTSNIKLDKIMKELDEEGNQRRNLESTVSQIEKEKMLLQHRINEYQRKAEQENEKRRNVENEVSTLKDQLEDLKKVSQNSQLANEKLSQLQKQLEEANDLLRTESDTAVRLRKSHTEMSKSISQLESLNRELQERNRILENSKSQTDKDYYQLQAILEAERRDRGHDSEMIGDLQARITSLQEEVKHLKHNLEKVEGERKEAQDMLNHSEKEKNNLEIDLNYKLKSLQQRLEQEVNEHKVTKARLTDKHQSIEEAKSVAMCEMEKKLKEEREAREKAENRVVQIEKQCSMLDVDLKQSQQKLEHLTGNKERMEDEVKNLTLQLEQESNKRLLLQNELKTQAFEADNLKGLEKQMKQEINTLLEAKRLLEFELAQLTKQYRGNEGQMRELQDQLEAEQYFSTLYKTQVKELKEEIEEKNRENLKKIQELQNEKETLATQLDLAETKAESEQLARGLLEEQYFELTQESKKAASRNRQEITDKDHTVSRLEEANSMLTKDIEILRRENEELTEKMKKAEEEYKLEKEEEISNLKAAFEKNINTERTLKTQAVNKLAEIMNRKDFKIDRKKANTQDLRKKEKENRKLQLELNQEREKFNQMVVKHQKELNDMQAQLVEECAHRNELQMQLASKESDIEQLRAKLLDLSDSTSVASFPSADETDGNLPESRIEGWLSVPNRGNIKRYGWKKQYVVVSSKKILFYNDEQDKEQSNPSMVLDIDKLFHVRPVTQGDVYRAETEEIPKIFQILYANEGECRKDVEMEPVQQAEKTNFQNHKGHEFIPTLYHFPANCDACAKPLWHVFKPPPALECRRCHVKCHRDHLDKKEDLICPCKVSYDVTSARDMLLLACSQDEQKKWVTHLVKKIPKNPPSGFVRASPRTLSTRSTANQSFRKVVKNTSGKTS
Sequence of Glycogen synthase kinase-3 alpha (P49840 whole entry): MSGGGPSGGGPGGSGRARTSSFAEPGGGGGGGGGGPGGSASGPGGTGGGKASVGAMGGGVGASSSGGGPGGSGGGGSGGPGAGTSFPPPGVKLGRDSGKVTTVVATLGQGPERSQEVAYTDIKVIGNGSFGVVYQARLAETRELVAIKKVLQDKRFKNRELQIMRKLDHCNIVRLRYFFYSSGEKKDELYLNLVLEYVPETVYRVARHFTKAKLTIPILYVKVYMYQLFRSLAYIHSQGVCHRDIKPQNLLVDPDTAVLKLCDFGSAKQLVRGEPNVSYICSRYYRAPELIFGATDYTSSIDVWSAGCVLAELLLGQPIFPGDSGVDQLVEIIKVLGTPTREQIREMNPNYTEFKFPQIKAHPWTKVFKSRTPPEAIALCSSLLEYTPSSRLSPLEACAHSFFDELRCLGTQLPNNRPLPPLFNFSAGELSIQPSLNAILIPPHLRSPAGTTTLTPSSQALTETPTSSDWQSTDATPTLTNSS
Sequence of Cyclin-dependent kinase 7 (P50613 whole entry): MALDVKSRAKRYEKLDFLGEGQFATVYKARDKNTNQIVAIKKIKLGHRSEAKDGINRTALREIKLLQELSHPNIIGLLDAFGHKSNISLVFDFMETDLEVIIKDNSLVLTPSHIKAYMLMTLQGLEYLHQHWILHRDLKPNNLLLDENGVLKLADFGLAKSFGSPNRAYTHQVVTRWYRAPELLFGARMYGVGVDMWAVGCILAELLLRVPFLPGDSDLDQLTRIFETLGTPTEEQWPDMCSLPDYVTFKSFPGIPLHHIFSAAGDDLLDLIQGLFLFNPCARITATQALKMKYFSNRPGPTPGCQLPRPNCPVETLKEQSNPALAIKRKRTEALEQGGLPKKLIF

- IC50 [1]: > 100 µM (inactive)
Compound: O=C(Nc1ccc2[nH]c(-c3cccs3)nc2c1)c1cccs1

- Ki [2]: 63.1 µM (active)
- Ki [3]: 0.501 µM (active)
- Ki [4]: 2 µM (active)
- Ki [5]: 25.1 µM (active)
- Ki [6]: 63.1 µM (active)
- Ki [7]: 31.6 µM (active)
- Ki [9]: 0.0794 µM (active)
- Ki [10]: 20 µM (active)
- Ki [11]: > 63.1 µM (inactive)
- Ki [12]: 20 µM (active)
- Ki [13]: 6.31 µM (active)
- Ki [14]: 31.6 µM (active)
- Ki [15]: 39.8 µM (active)
- Ki [16]: 79.4 µM (active)
- Ki [17]: 0.0398 µM (active)
- Ki [18]: 7.94 µM (active)
- Ki [19]: 15.8 µM (active)
- Ki (Focal adhesion kinase 1): 20 µM (active)
- Ki [20]: 20 µM (active)
- Ki [21]: 1.26 µM (active)
- Ki [22]: 6.31 µM (active)
- Ki [23]: 0.251 µM (active)
- Ki (Aurora kinase A): > 39.8 µM (inactive)
- Ki [24]: 7.94 µM (active)
- Ki [25]: 25.1 µM (active)
- Ki (Activated CDC42 kinase 1): 15.8 µM (active)
- Ki [26]: 79.4 µM (active)
- Ki [27]: 1.26 µM (active)
- Ki [28]: 12.6 µM (active)
- Ki [29]: 20 µM (active)
- Ki (Activin receptor type-1): 1 µM (active)
- Ki [30]: 63.1 µM (active)
- Ki [31]: 0.501 µM (active)
- Ki [32]: 20 µM (active)
- Ki [33]: 20 µM (active)
- Ki [34]: 31.6 µM (active)
Compound: Nc1n[nH]c2cccc(-c3ccc(F)cc3)c12
- Ki [8]: 39.8 µM (active)

- IC50 [35]: 3.67 µM (active)
- IC50 [36]: 1.18 µM (active)
Compound: N#CC(c1cccnc1)c1cnn(Cc2cccc3ccccc23)c(=O)c1Cl (configuration not stated)

- IC50 [37]: 8.2 µM (active)
- IC50 [38]: 8.2 µM (active)
Compound: CCC(C#N)(c1ccccc1)c1c(Br)cnn(Cc2cccc3ccccc23)c1=O (configuration not stated)
